Experimental data from PubChem BioAssay (NCI).
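Assay format: 96-well plates, 48-hour exposure. GI50 is the concentration that inhibits growth by half. TGI marks complete inhibition of growth.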

How the values were obtained:
Assay in all cases: NCI tumour cell line growth inhibition, 48 h
[1] = tested on: RXF 393 renal
[2] = tested on: UACC-62 melanoma
[3] = tested on: SW-620 colon
[4] = tested on: DU-145 prostate
[5] = tested on: EKVX NSCLC
[6] = tested on: MDA-N
[7] = tested on: OVCAR-5 ovarian
[8] = tested on: 786-0 renal
[9] = tested on: SR leukemia
[10] = tested on: LXFL 529 NSCLC
[11] = tested on: DLD-1 colon
[12] = tested on: SNB-78 CNS

SMILES | TGI [1] | TGI [2] | TGI [3] | TGI [4] | TGI [5] | TGI [6] | TGI [7] | TGI [8] | TGI [9] | GI50 [1] | GI50 [9] | GI50 [2] | GI50 [3] | GI50 [4] | GI50 [5] | GI50 [7] | TGI [10] | TGI [11] | TGI [12]
CCOC(=O)c1c(-c2cccc(Cl)c2)c(C(=O)OC)c(C)c2sc(C=O)nc12 | 44.6 µM | 32.2 µM | > 100 µM | 37.8 µM | 31.9 µM | 56.7 µM | 35.7 µM |  |  |  |  |  |  |  |  |  |  |  | 
Cc1ccc(OCC2=NC3S/C(=C/c4ccc([N+](=O)[O-])o4)C(=O)N3N2)cc1 (stereo unspecified) | 28.5 µM |  | 15 µM | 20.5 µM | 24.5 µM | 20.7 µM | 35.2 µM | 23.7 µM | 11.4 µM |  |  |  |  |  |  |  |  |  | 
COC(=O)C1=C(OC(=O)/C=C/c2ccc(Cl)cc2)C(C(=O)OC)[C@]2(O)[C@@H](C(=O)OC)[C@H]1C[C@@H](c1ccccc1)[C@@H]2C(=O)OC (stereo partly specified) | > 100 µM | > 100 µM | > 100 µM | > 100 µM | 53.2 µM | > 23.1 µM | > 100 µM | > 25.2 µM | > 100 µM |  |  |  |  |  |  |  |  |  | 
O/C(=C\c1nc2ccccc2nc1/C=C(\O)c1ccc(F)cc1)c1ccc(F)cc1 | > 100 µM | > 100 µM | > 100 µM | > 100 µM | > 100 µM | > 100 µM | > 100 µM | > 100 µM | > 100 µM |  |  |  |  |  |  |  |  |  | 
N#Cc1ccccc1C#C/C=C\C#Cc1ccccc1N | > 23.7 µM | > 33.6 µM | > 100 µM | > 100 µM | > 57.3 µM |  | > 62.6 µM |  | 2.52 µM | 7 µM | 0.745 µM | 3.03 µM | 3.76 µM | 13.9 µM | 10 µM | 5 µM |  |  | 
CC(=O)Nc1ccc(C(=O)NN2C(=O)C(Cl)C2c2cccc([N+](=O)[O-])c2)cc1 (stereo unspecified) |  | > 100 µM | > 100 µM |  |  |  | > 100 µM |  | > 100 µM |  |  |  |  |  |  |  | > 100 µM | > 100 µM | 
CCN1CCN(c2nc3ccccc3nc2C(=O)c2ccc(OC)c(OC)c2)CC1 | 29.8 µM | > 100 µM | > 100 µM | > 100 µM | 57.4 µM | 97.7 µM | > 100 µM | 25.7 µM | 24.4 µM |  |  |  |  |  |  |  |  |  | 
Cc1cc2ccc(OC(=O)c3ccc(N=C(N)N)cc3)cc2oc1=O | > 100 µM | 79.1 µM | 78.5 µM | > 100 µM | > 100 µM | 83.8 µM | > 100 µM | 64.6 µM | 58.4 µM |  |  |  |  |  |  |  |  |  | 
CS(C)(=O)=Nn1c(=O)n2n(c1=O)C1c3ccccc3C2c2ccccc21 | > 100 µM | > 100 µM | > 100 µM | > 100 µM | > 100 µM | > 100 µM | > 100 µM |  | > 100 µM |  |  |  |  |  |  |  |  |  | 
Cn1c2[n+](c3nc(N)[nH]c(=O)c31)C1OC(C2)C(O)C1O (stereo unspecified) | > 100 µM | > 100 µM | > 100 µM |  | > 100 µM |  | > 100 µM | > 100 µM | > 100 µM |  |  |  |  |  |  |  | > 100 µM | > 100 µM | > 100 µM
COc1cccc(/C=N/[N-]C(N)=O)c1[O-].[Ni+2].[OH3+] | 0.8 µM | 1.35 µM | 0.371 µM |  | 2.57 µM |  | 2.55 µM | 0.474 µM | 2.64 µM |  |  |  | 0.135 µM |  |  |  |  |  | 
CC1=CC(O)C(C(O)(C(F)(F)F)C(F)(F)F)C(C)(C)C1 (stereo unspecified) | > 10 µM | > 10 µM | > 10 µM | > 10 µM | > 10 µM | > 10 µM | > 10 µM |  |  |  |  |  |  |  |  |  |  |  | 
Nc1nnc(CCC(=O)Nc2cc(Cl)ccc2Cl)n1N | > 100 µM | > 100 µM | > 100 µM |  | > 100 µM |  | > 100 µM |  | > 100 µM |  |  |  |  |  |  |  | > 100 µM | > 100 µM | > 100 µM
O=S(=O)(O)c1ccc2c(N=Nc3ccc(N=Nc4ccccc4)cc3)c(O)c(S(=O)(=O)O)cc2c1 | > 100 µM | > 100 µM | > 100 µM | > 100 µM | > 100 µM | > 100 µM | > 100 µM | > 100 µM | > 100 µM |  |  |  |  |  |  |  |  |  | 
Cc1cc(C)c2c(=O)n(CC(O)CN3CCN(CCOCCO)CC3)sc2n1 (stereo unspecified) | 21 µM | 32.7 µM | > 100 µM | 48.2 µM | 35.3 µM | 29.2 µM | 34.8 µM | 30.6 µM | > 100 µM |  |  |  |  |  |  |  |  |  | 
OCCCSCCO |  | > 100 µM | > 100 µM | > 100 µM | > 100 µM | > 100 µM | > 100 µM | > 100 µM | > 100 µM |  |  |  |  |  |  |  |  |  | 
Cc1n[n+]([O-])c(C)cc1[N+](=O)[O-] | 66.3 µM | 31.5 µM | 28.2 µM | 51.2 µM | 45.4 µM |  | 36.8 µM | > 100 µM |  |  |  |  |  |  |  |  |  |  | 
